Measurements reported in US4190666A, “Anti-inflammatory 4,5-diarly-2-(substituted-thio)imidazoles and their corresponding sulfoxides and sulfones” (E. I. Du Pont de Nemours and Company, priority 1978, dated 1980).

These molecules were tested on established adjuvant-induced arthritis in rats (assay: Established adjuvant-induced arthritis in rats (therapeutic, paw volume)). Conditions: 1.0 mg./kg., oral.
Type: in vivo, Charles River Lewis male rats

Row | Compound | percent (%) reduction in paw volume measured at the indicated dose [%]
1 | Fc1cccc(-c2[nH]c(SC(F)(F)C(F)F)nc2-c2ccccc2)c1 [Example 120] | 37

Same assay, conditions: 10 mg./kg., oral

Row | Compound | percent (%) reduction in paw volume measured at the indicated dose [%]
2 | CCCCSc1nc(-c2ccc(F)cc2)c(-c2ccc(F)cc2)[nH]1 [Example 108] | 77
3 | CCOc1ccc(-c2[nH]c(SC(F)(F)C(F)F)nc2-c2ccccc2)cc1 [Example 118] | 32
4 | Cc1ccc(-c2[nH]c(S(=O)(=O)C(F)(F)C(F)F)nc2-c2ccc(Cl)cc2)cc1 [Example 131] | 36

Same assay, conditions: 25 mg./kg., oral

Row | Compound | percent (%) reduction in paw volume measured at the indicated dose [%]
5 | CSc1nc(-c2ccccc2)c(-c2ccc(Cl)c(Cl)c2)[nH]1 [Example 112] | 62

Same assay, conditions: 50 mg./kg., oral

Row | Compound | percent (%) reduction in paw volume measured at the indicated dose [%]
6 | CSc1nc(-c2ccccc2)c(-c2cccc(Cl)c2)[nH]1 [Example 114] | 45
7 | CCOc1ccc(-c2[nH]c(SC)nc2-c2ccccc2)cc1 [Example 115] | 33
8 | CCCCS(=O)(=O)c1nc(-c2ccc(OC)cc2)c(-c2ccc(OC)cc2)[nH]1 [Example 129] | 71

Same assay, conditions: Rattus norvegicus, po, established arthritis, 7 daily doses, ED50% decrease from control paw volume, Tables I-III, read-out: Adjuvant Arthritis (ED50%)

Row | Compound | ED50 [mg/kg]
9 | Cc1ccc(-c2nc(SC(F)(F)C(F)F)[nH]c2-c2ccc(C)cc2)cc1 [Example 43] | 18
10 | COc1ccc(-c2nc(SC(F)(F)C(F)F)[nH]c2-c2ccccc2)cc1 [Example 44] | 20
11 | FC(F)C(F)(F)Sc1nc(-c2ccc(Cl)cc2)c(-c2ccccc2)[nH]1 [Example 45] | 0.3
12 | FC(F)C(F)(F)Sc1nc(-c2ccc3c(c2)OCO3)c(-c2ccc3c(c2)OCO3)[nH]1 [Example 46] | 10
13 | FC(F)C(F)(F)Sc1nc(-c2ccc(C(F)(F)F)cc2)c(-c2ccccc2)[nH]1 [Example 47] | 4.5
14 | Fc1ccc(-c2nc(SC(F)(F)C(F)F)[nH]c2-c2ccc(C(F)(F)F)cc2)cc1 [Example 48] | 1.5
15 | Fc1ccc(-c2nc(SC(F)(F)C(F)F)[nH]c2-c2ccccc2)cc1 [Example 49] | 0.2
16 | FC(F)C(F)(F)Sc1nc(-c2ccccc2Cl)c(-c2cccc(Cl)c2)[nH]1 [Example 50] | 1.2
17 | CN(C)c1ccc(-c2nc(SC(F)(F)C(F)F)[nH]c2-c2ccccc2)cc1 [Example 53] | 2.5
18 | C=CC[S+]([O-])c1nc(-c2ccc(OC)cc2)c(-c2ccc(OC)cc2)[nH]1 (stereo not shown) [Example 54] | 11
19 | C=CCS(=O)(=O)c1nc(-c2ccc(OC)cc2)c(-c2ccc(OC)cc2)[nH]1 [Example 55] | 11
20 | COc1ccc(-c2nc([S+](C)[O-])[nH]c2-c2ccc(OC)cc2)cc1 (stereo not shown) [Example 56] | 6.2
21 | COc1ccc(-c2nc(S(C)(=O)=O)[nH]c2-c2ccc(OC)cc2)cc1 [Example 57] | 6.4
22 | C[S+]([O-])c1nc(-c2ccc(Cl)cc2)c(-c2ccc(Cl)cc2)[nH]1 (stereo not shown) [Example 59] | 2.3
23 | CCC[S+]([O-])c1nc(-c2ccc(OC)cc2)c(-c2ccc(OC)cc2)[nH]1 (stereo not shown) [Example 61] | 13
24 | CCCS(=O)(=O)c1nc(-c2ccc(OC)cc2)c(-c2ccc(OC)cc2)[nH]1 [Example 62] | 9
25 | COc1ccc(-c2nc(S(=O)(=O)C(C)C)[nH]c2-c2ccc(OC)cc2)cc1 [Example 63] | 30
26 | [O-][S+](c1nc(-c2ccccc2)c(-c2ccccc2)[nH]1)C(F)(F)C(F)F (stereo not shown) [Example 66] | 0.18
27 | CS(=O)(=O)c1nc(-c2ccc(Cl)cc2)c(-c2ccc(Cl)cc2)[nH]1 [Example 67] | 2
28 | [O-][S+](c1nc(-c2ccc(Cl)cc2)c(-c2ccc(Cl)cc2)[nH]1)C(F)(F)C(F)F (stereo not shown) [Example 68] | 0.2

Row | Compound | ED50 [mg/kg]
29 | O=S(=O)(c1nc(-c2ccc(Cl)cc2)c(-c2ccc(Cl)cc2)[nH]1)C(F)(F)C(F)F [Example 69, 4,5-bis(4-chlorophenyl)-2-(1,1,2,2-tetrafluoroethylsulfonyl)imidazole] | 0.2
30 | O=S(=O)(CC(F)(F)F)c1nc(-c2ccc(F)cc2)c(-c2ccc(F)cc2)[nH]1 [Example 70] | 3.5
31 | CS(=O)(=O)c1nc(-c2ccc(F)cc2)c(-c2ccc(F)cc2)[nH]1 [Example 72] | 4.5
32 | O=S(=O)(c1nc(-c2ccccc2)c(-c2ccccc2)[nH]1)C(F)(F)C(F)Cl (stereo not shown) [Example 73] | 0.25
33 | O=S(=O)(c1nc(-c2ccccc2)c(-c2ccccc2)[nH]1)C(F)F [Example 75] | 0.35
34 | O=S(=O)(c1nc(-c2ccccc2)c(-c2ccccc2)[nH]1)C(F)(F)C(Cl)Cl [Example 76] | 1.5
35 | O=S(=O)(c1nc(-c2ccc(Cl)cc2)c(-c2ccc(Cl)cc2)[nH]1)C(F)F [Example 77] | 0.35
36 | O=S(=O)(c1nc(-c2ccc(F)cc2)c(-c2ccc(F)cc2)[nH]1)C(F)F [Example 78] | 0.1
37 | CS(=O)(=O)c1nc(-c2ccc(Cl)cc2)c(-c2ccc(F)cc2)[nH]1 [Example 79] | 2.8
38 | O=S(=O)(c1nc(-c2ccc(Cl)cc2)c(-c2ccc(F)cc2)[nH]1)C(F)(F)C(F)F [Example 80] | 0.09
39 | Cc1ccc(-c2nc(S(=O)(=O)C(F)(F)C(F)F)[nH]c2-c2ccc(C)cc2)cc1 [Example 81] | 0.35
40 | COc1cccc(-c2nc(S(=O)(=O)C(F)(F)C(F)F)[nH]c2-c2cccc(OC)c2)c1 [Example 84] | 4
41 | CS(=O)(=O)c1nc(-c2ccc(Cl)cc2)c(-c2ccccc2)[nH]1 [Example 85] | 30
42 | CS(=O)(=O)c1nc(-c2ccc(F)cc2)c(-c2ccc(C(F)(F)F)cc2)[nH]1 [Example 87] | 3.7
43 | CS(=O)(=O)c1nc(-c2ccc(Cl)cc2)c(-c2ccc(C(F)(F)F)cc2)[nH]1 [Example 88] | 2.2
44 | O=S(=O)(c1nc(-c2ccc(C(F)(F)F)cc2)c(-c2ccccc2)[nH]1)C(F)(F)C(F)F [Example 89] | 2.4
45 | O=S(=O)(c1nc(-c2ccc(Cl)cc2)c(-c2ccc(C(F)(F)F)cc2)[nH]1)C(F)(F)C(F)F [Example 90] | 1.8
46 | O=S(=O)(c1nc(-c2ccccc2Cl)c(-c2ccccc2Cl)[nH]1)C(F)(F)C(F)F [Example 91] | 0.8
47 | O=S(=O)(c1nc(-c2ccc(F)cc2)c(-c2ccccc2)[nH]1)C(F)(F)C(F)F [Example 92, 4(or 5)-(4-fluorophenyl)-5(or 4)-phenyl-2-(1,1,2,2-tetrafluoroethylsulfonyl)imidazole] | 0.027
48 | O=S(=O)(c1nc(-c2cccc(Cl)c2)c(-c2cccc(Cl)c2)[nH]1)C(F)(F)C(F)F [Example 93] | 0.16

Row | Compound | ED50 [mg/kg]
49 | [O-][S+](c1nc(-c2ccc(Cl)cc2)c(-c2ccc(Cl)cc2)[nH]1)C(F)F (stereo not shown) [Example 94] | 0.19
50 | Cc1ccc(-c2nc(S(=O)(=O)C(F)(F)C(F)F)[nH]c2-c2ccccc2)cc1 [Example 96] | 0.6
51 | O=S(=O)(c1nc(-c2ccc3c(c2)OCO3)c(-c2ccc3c(c2)OCO3)[nH]1)C(F)(F)C(F)F [Example 97] | 1
52 | COc1ccc(-c2nc([S+]([O-])CC(C)=O)[nH]c2-c2ccc(OC)cc2)cc1 (stereo not shown) [Example 98] | 56
53 | COc1ccc(-c2nc(S(=O)(=O)CS(C)(=O)=O)[nH]c2-c2ccc(OC)cc2)cc1 [Example 99] | 54
54 | COc1ccc(-c2nc(S(=O)(=O)CC(C)=O)[nH]c2-c2ccc(OC)cc2)cc1 [Example 100] | 18
55 | O=S(=O)(c1nc(-c2ccccc2)c(-c2ccccc2)[nH]1)C(F)(F)F [Example 103, 4,5-diphenyl-2-trifluoromethylsulfonylimidazole] | 0.03
56 | O=S(=O)(c1nc(-c2ccc(F)cc2)c(-c2ccc(F)cc2)[nH]1)C(F)(F)F [Example 104, 4,5-bis(p-fluorophenyl)-2-trifluoromethylsulfonylimidazole] | 0.015
57 | COc1ccc(-c2nc(SC(F)(F)F)[nH]c2-c2ccc(OC)cc2)cc1 [Example 107] | 1.5
58 | COc1ccc(-c2nc(SC(F)(F)F)[nH]c2-c2ccc(F)cc2)cc1 [Example 109] | 2.7
59 | Fc1ccc(-c2nc(SC(F)(F)C(F)(F)F)[nH]c2-c2ccc(F)cc2)cc1 [Example 110] | 0.2
60 | FC(F)(F)Sc1nc(-c2ccccc2)c(-c2ccc(Cl)c(Cl)c2)[nH]1 [Example 111] | 7
61 | CSc1nc(-c2ccccc2)c(-c2cccc(F)c2)[nH]1 [Example 113] | 50
62 | COc1ccc(-c2[nH]c(SC(F)(F)C(F)F)nc2-c2ccc(F)cc2)cc1 [Example 117] | 14
63 | FC(F)C(F)(F)Sc1nc(-c2ccccc2)c(-c2ccc(Cl)c(Cl)c2)[nH]1 [Example 119] | 3
64 | FC(F)C(F)(F)Sc1nc(-c2ccccc2)c(-c2cccc(Cl)c2)[nH]1 [Example 121] | 0.6
65 | O=S(=O)(c1nc(-c2ccccc2)c(-c2ccccc2)[nH]1)C(F)(F)CF [Example 124] | 0.15
66 | O=S(=O)(c1nc(-c2ccccc2)c(-c2ccccc2)[nH]1)C(F)(F)C(F)Br (stereo not shown) [Example 126] | 0.85
67 | COc1ccc(-c2nc(S(=O)(=O)C(F)(F)C(F)I)[nH]c2-c2ccc(OC)cc2)cc1 (stereo not shown) [Example 128] | 3
68 | [O-][S+](c1nc(-c2ccc(F)cc2)c(-c2ccc(F)cc2)[nH]1)C(F)(F)C(F)F (stereo not shown) [Example 134] | 0.055

Same assay, conditions: Rattus norvegicus; established arthritis, oral, 7 daily doses; ED50% decrease from control paw volume; Tables I-III; read-out: Adjuvant Arthritis (ED50%)

Row | Compound | ED50 [mg/kg]
69 | O=[N+]([O-])c1ccc(-c2nc(S(=O)(=O)C(F)(F)C(F)F)[nH]c2-c2ccc([N+](=O)[O-])cc2)cc1 [Example 135] | 8.5

Same assay, conditions: established arthritis, oral, 7 daily doses; ED50% decrease from control paw volume; Tables I-III

Row | Compound | Adjuvant Arthritis (ED50%) [mg/kg]
70 | COc1ccc(-c2nc(SC(F)(F)C(F)Br)[nH]c2-c2ccc(OC)cc2)cc1 (stereo not shown) [Example 51, 2-(2-bromo-1,1,2-trifluoroethylthio)-4,5-bis(4-methoxyphenyl)imidazole] | 10
71 | FC(Br)C(F)(F)Sc1nc(-c2ccccc2)c(-c2ccccc2)[nH]1 (stereo not shown) [Example 52, 2-(2-bromo-1,1,2-trifluoroethylthio)-4,5-diphenylimidazole] | 11
72 | COc1ccc(-c2nc(SC(F)(F)C(F)I)[nH]c2-c2ccc(OC)cc2)cc1 (stereo not shown) [Example 116] | 30

Same assay, conditions: established arthritis, oral, 7 daily doses; ED50% decrease from control paw volume; Tables I-III; listed as 122

Row | Compound | Adjuvant Arthritis (ED50%) [mg/kg]
73 | CN(C)c1ccc(-c2nc(SC(F)(F)C(F)F)[nH]c2-c2ccccc2)cc1 [Example 53] | 4.0
